Data on five compounds can be found in US9834554B2, “BTK inhibitors” (MERCK SHARP & DOHME CORP., priority 2013, dated 2017).

For this assay, the target named is BTK enzyme (recombinant full-length BTK, hBTK) (Homo sapiens (Human), UniProt Q06187). Put plainly: Btk enzyme activity assay, LANCE TR-FRET. For orientation: Time-resolved FRET reads energy transfer from a long-lived donor to a nearby acceptor.
Where [1] appears, read: read-out: BTK binding IC50, 50 pM hBTK, 2 μM biotin-A5-peptide, 25 μM ATP, 60 minute compound & enzyme incubation.

Read-outs that look alike come from different tables or passages of the source.

BTK enzyme (recombinant full-length BTK, hBTK), sequence (Q06187 whole entry): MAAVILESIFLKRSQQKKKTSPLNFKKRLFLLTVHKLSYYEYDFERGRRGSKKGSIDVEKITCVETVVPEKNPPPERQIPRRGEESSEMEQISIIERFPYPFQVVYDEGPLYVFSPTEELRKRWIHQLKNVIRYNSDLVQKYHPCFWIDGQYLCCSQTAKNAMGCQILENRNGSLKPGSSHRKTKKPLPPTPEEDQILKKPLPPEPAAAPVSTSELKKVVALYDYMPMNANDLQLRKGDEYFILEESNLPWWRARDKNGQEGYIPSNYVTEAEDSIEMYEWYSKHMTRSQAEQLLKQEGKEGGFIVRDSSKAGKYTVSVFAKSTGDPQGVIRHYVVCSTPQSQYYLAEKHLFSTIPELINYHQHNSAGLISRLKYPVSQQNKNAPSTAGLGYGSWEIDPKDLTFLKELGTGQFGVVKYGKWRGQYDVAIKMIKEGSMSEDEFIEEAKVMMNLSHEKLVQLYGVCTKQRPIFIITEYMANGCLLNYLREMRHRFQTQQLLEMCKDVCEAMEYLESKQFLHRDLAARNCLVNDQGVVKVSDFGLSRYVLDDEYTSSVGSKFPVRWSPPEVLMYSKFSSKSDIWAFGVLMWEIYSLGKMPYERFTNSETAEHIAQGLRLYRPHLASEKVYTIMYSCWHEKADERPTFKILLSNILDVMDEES
Protocol: Also BTK enzymatic activity was determined with the LANCE (Lanthanide Chelate Excite) TR-FRET (Time-resolved fluorescence resonance energy transfer) assay. […] Phosphorylation reactions were allowed to proceed for 120 minutes. […] After 60 minutes incubation with detection reagents, reaction plates were read on a PerkinElmer EnVision plate reader using standard TR-FRET protocol. Briefly, excitation of donor molecules (Eu-chelate:anti-phospho-antibody) with a laser light source at 337 nm produces energy that can be transferred to Dylight-650 acceptor molecules if this donor:acceptor pair is within close proximity. Fluorescence intensity at both 665 nm (acceptor) and 615 nm (donor) are measured and a TR-FRET ratio calculated for each well (acceptor intensity/donor intensity).
Btk Enzyme Activity Assay Method
BTK enzymatic activity was determined with the LANCE (Lanthanide Chelate Excite) TR-FRET (Time-resolved fluorescence resonance energy transfer) assay. […] Phosphorylation reactions were allowed to proceed for 120 minutes. […] After 60 minutes incubation with detection reagents, reaction plates were read on a PerkinElmer EnVision plate reader using standard TR-FRET protocol. Briefly, excitation of donor molecules (Eu-chelate:anti-phospho-antibody) with a laser light source at 337 nm produces energy that can be transferred to Dylight-650 acceptor molecules if this donor:acceptor pair is within close proximity. Fluorescence intensity at both 665 nm (acceptor) and 615 nm (donor) are measured and a TR-FRET ratio calculated for each well (acceptor intensity/donor intensity).

A word on the IC50: it is the point on the concentration scale where inhibition reaches its midpoint. Consider `COc1cc(C(=O)Nc2cccc(C(F)(F)F)c2)ccc1-n1nc([C@@H]2CC[C@H](C)N(C(=O)C3CC3)C2)c2ccnc(N)c21` [Example 37, 4-(7-amino-3-((3R,6S)-1-(cyclopropanecarbonyl)-6-methylpiperidin-3-yl)-1H-pyrazolo[3,4-c]pyridin-1-yl)-3-methoxy-N-(3-(trifluoromethyl)phenyl)benzamide], for which the IC50 under setting [1] amounted to 2.1 nM.
Turning to `Nc1nccc2c([C@@H]3CC[C@H]4CCC(=O)N4C3)nn(-c3ccc(C(=O)Nc4cc(C(F)(F)F)ccn4)cc3)c12` [Example 38, 4-{7-amino-3-[(6R,8aS)-3-oxooctahydroindolizin-6-yl]-1H-pyrazolo[3,4-c]pyridin-1-yl}-N-[4-(trifluoromethyl)pyridin-2-yl]benzamide], the IC50 came out at 0.17 nM.
For the compound `Nc1nccc2c([C@@H]3CC[C@H]4CCC(=O)N4C3)nn(-c3ccc(C(=O)Nc4cc(C(F)(F)F)ccn4)cc3OC3CC3)c12` [Example 39, 4-{7-amino-3-[(6R,8aS)-3-oxooctahydroindolizin-6-yl]-1H-pyrazolo[3,4-c]pyridin-1-yl}-3-(cyclopropyloxy)-N-[4-(trifluoromethyl)pyridin-2-yl] benzamide], the 50% inhibitory concentration (IC50) under setting [1] came out at 2.8 nM.
For the compound `COc1cc(C(=O)Nc2cc(C(F)(F)F)ccn2)ccc1-n1nc([C@@H]2CC[C@H]3CCC(=O)N3C2)c2ccnc(N)c21` [Example 40, 4-{7-amino-3-[(6R,8aS)-3-oxooctahydroindolizin-6-yl]-1H-pyrazolo[3,4-c]pyridin-1-yl}-3-methoxy-N-[4-(trifluoromethyl)pyridin-2-yl] benzamide], under setting [1], the IC50 is 1.1 nM.
Same read-out and setting: the figure for `CCOc1cc(C(=O)Nc2cc(C(F)(F)F)ccn2)ccc1-n1nc([C@@H]2CC[C@H]3CCC(=O)N3C2)c2ccnc(N)c21` [Example 41, 4-{7-amino-3-[(6R,8aS)-3-oxooctahydroindolizin-6-yl]-1H-pyrazolo[3,4-c]pyridin-1-yl}-3-ethoxy-N-[4-(trifluoromethyl)pyridin-2-yl] benzamide] is 0.44 nM.
